This is an account of results in ChEMBL document CHEMBL3046665, “In vitro cytotoxicity, antimicrobial, and metal-chelating activity of triterpene saponins from tea seed grown in Kangra valley, India” (Med Chem Res, 2013).

What all share (format): functional
Assay [1] deals with PC-3. Briefly: Cytotoxicity against Homo sapiens (human) PC3 cells assessed as growth inhibition at 1 uM after 48 hr by SRB assay. The note with it: PC-3, 48 h, read-out: GI. In general terms: In SRB staining, fixed cells bind dye roughly in proportion to their protein.
The subject of assay [2] is COLO 205. Briefly: Cytotoxicity against Homo sapiens (human) COLO205 cells assessed as growth inhibition at 1uM after 48 hr by SRB assay. The note with it: COLO 205, 48 h, read-out: GI.
The subject of assay [3] is MCF7. Briefly: Cytotoxicity against Homo sapiens (human) MCF7 cells assessed as growth inhibition at 1 uM after 48 hr by SRB assay. The following applies: MCF7, 48 h, read-out: GI.
Assay [4] concerns OVCAR-5. In words: Cytotoxicity against Homo sapiens (human) OVCAR5 cells assessed as growth inhibition at 1 uM after 48 hr by SRB assay. The following applies: OVCAR-5, 48 h, read-out: GI.

Where a name gives a salt, the structure may show the parent alone.

In the case of `CC(=O)O[C@H]1C(=O)[C@@]2(C)[C@H]([C@H](OC(=O)c3ccccc3)[C@]3(O)C[C@H](OC(=O)[C@H](O)[C@@H](NC(=O)c4ccccc4)c4ccccc4)C(C)=C1C3(C)C)[C@]1(OC(C)=O)CO[C@@H]1C[C@@H]2O` [PACLITAXEL], the inhibition of growth at 1 µM in assay [1] was determined as 71%; in assay [2], 57%; in assay [3], 80%; in assay [4], 73%.

For the molecule `COc1cccc2c1C(=O)c1c(O)c3c(c(O)c1C2=O)C[C@@](O)(C(=O)CO)C[C@@H]3O[C@H]1C[C@H](N)[C@H](O)[C@H](C)O1` [DOXORUBICIN HYDROCHLORIDE], the inhibition of growth at 1 µM in assay [1] amounted to 66%; in assay [2], 69%; in assay [3], 72%; in assay [4] it was 60%.
